Experimental data reported in patent publication US12274689B2, “Compound for the management of feline diabetes” (INCREVET, INC., priority 2019, dated 2025).
Marks after values point to notes of the source that are not given here.

How the values were obtained:
ZDF rats = test: plasma glucose in male Zucker Diabetic Fatty rats, daily oral dosing (study 338); assay type: in vivo; conditions: for plasma glucose levels / plasma glucose levels, Day 21 Δ: male ZDF rats; for plasma glucose levels, Day 21 Δ: change Day 0 to Day 21
human SGLT2 = target: T1, human SGLT2 (Homo sapiens, UniProt P31639); test: selectivity for human SGLT2 compared to human SGLT1
T1 sequence (P31639 1-672): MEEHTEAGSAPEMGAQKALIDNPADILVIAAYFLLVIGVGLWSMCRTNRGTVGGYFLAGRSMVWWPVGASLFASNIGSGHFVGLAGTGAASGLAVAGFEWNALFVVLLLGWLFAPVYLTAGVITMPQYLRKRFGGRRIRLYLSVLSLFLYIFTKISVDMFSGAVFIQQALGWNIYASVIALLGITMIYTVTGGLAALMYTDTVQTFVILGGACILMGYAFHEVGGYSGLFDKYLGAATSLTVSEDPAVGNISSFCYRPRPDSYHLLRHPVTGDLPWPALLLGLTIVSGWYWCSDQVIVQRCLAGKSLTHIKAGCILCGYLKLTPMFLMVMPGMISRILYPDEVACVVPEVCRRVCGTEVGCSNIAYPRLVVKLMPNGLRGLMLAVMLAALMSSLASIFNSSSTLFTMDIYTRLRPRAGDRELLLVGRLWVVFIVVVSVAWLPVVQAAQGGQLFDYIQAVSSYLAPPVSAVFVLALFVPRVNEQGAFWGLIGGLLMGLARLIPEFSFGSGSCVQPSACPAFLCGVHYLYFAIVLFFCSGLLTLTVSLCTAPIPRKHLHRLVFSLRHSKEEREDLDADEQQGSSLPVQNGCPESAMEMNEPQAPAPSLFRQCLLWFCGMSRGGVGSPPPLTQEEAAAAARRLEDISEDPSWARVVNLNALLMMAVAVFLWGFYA

healthy cats = test: 21-day high-dose study in healthy cats (study 3); assay type: in vivo, cat; conditions: 15 mg kg^−1 bid (30 mg kg^−1 day^−1) for 21 days
From the text: All cats regained weight when the dosing ended. Because diabetic cats are often presented as a result of weight loss, the degree of […] would clearly be adverse and incompatible with treatment.

OC[C@H]1O[C@@H](c2ccc(Cl)c(Cc3ccc(OCCOC4CC4)cc3)c2)[C@H](O)[C@@H](O)[C@@H]1O [bexagliflozin, (2S,3R,4R,5S,6R)-2-(4-chloro-3-(4-(2-cyclopropoxyethoxy)benzyl)phenyl)-6-(hydroxymethyl)tetrahydro-2H-pyran-3,4,5-triol]
change in plasma glucose levels (ZDF rats; ZDF rats, after 7 days, 0.067 mg kg^−1): +2.8% | change in plasma glucose levels (ZDF rats; ZDF rats, after 7 days, 0.2 mg kg^−1): −16.8% | change in plasma glucose levels (ZDF rats; ZDF rats, after 7 days, 0.67 mg kg^−1): −17.1% | change in plasma glucose levels (ZDF rats; ZDF rats, after 7 days, 2.0 mg kg^−1): −25.3% | change in plasma glucose levels (ZDF rats; ZDF rats, after 14 days, 0.067 mg kg^−1): +9.5% | change in plasma glucose levels (ZDF rats; ZDF rats, after 14 days, 0.2 mg kg^−1): −5.6% | change in plasma glucose levels (ZDF rats; ZDF rats, after 14 days, 0.67 mg kg^−1): −8.1% | change in plasma glucose levels (ZDF rats; ZDF rats, after 14 days, 2.0 mg kg^−1): −25.1% | change in plasma glucose levels (ZDF rats; ZDF rats, after 21 days, 0.067 mg kg^−1): +15.5% | change in plasma glucose levels (ZDF rats; ZDF rats, after 21 days, 0.2 mg kg^−1): +4.3% | change in plasma glucose levels (ZDF rats; ZDF rats, after 21 days, 0.67 mg kg^−1): +1.5% | change in plasma glucose levels (ZDF rats; ZDF rats, after 21 days, 2.0 mg kg^−1): −15.4% | blood glucose, level below which it was not reduced (ZDF rats; ZDF rats, sole agent, any dose group): ≥ 287 mg/dL | plasma glucose levels (ZDF rats; 0.067 mg kg^−1 oral once daily, Day 0): 373.2 ± 29.5 mg/dL | plasma glucose levels (ZDF rats; 0.067 mg kg^−1 oral once daily, Day 7): 383.7 ± 33.1 mg/dL | plasma glucose levels (ZDF rats; 0.067 mg kg^−1 oral once daily, Day 14): 408.6 ± 19.6 mg/dL | plasma glucose levels (ZDF rats; 0.067 mg kg^−1 oral once daily, Day 21): 431.0 ± 19.7 mg/dL | plasma glucose levels, Day 21 Δ (ZDF rats; 0.067 mg kg^−1 oral once daily): +57.8 ± 41.7 mg dL^−1 | plasma glucose levels (ZDF rats; 0.2 mg kg^−1 oral once daily, Day 0): 386.6 ± 28.2 mg/dL | plasma glucose levels (ZDF rats; 0.2 mg kg^−1 oral once daily, Day 7): 321.8 ± 19.5 mg/dL | plasma glucose levels (ZDF rats; 0.2 mg kg^−1 oral once daily, Day 14): 364.9 ± 13.1 mg/dL | plasma glucose levels (ZDF rats; 0.2 mg kg^−1 oral once daily, Day 21): 403.2 ± 20.1 mg/dL | plasma glucose levels, Day 21 Δ (ZDF rats; 0.2 mg kg^−1 oral once daily): +16.6 ± 36.6 mg dL^−1 | plasma glucose levels (ZDF rats; 0.67 mg kg^−1 oral once daily, Day 0, n = 10): 384.4 ± 27.5 mg/dL | plasma glucose levels (ZDF rats; 0.67 mg kg^−1 oral once daily, Day 7): 318.7 ± 32.0 mg/dL | plasma glucose levels (ZDF rats; 0.67 mg kg^−1 oral once daily, Day 14): 353.4 ± 18.9 mg/dL | plasma glucose levels (ZDF rats; 0.67 mg kg^−1 oral once daily, Day 21, n = 9): 374.2 ± 37.3 mg/dL | plasma glucose levels, Day 21 Δ (ZDF rats; 0.67 mg kg^−1 oral once daily, n = 9): +5.4 ± 30.8^b mg dL^−1 | plasma glucose levels (ZDF rats; 2 mg kg^−1 oral once daily, Day 0): 384.8 ± 16.5 mg/dL | plasma glucose levels (ZDF rats; 2 mg kg^−1 oral once daily, Day 7): 287.4 ± 27.4 mg/dL | plasma glucose levels (ZDF rats; 2 mg kg^−1 oral once daily, Day 14): 288.3 ± 17.1 mg/dL | plasma glucose levels (ZDF rats; 2 mg kg^−1 oral once daily, Day 21): 325.4 ± 13.0 mg/dL | plasma glucose levels, Day 21 Δ (ZDF rats; 2 mg kg^−1 oral once daily): -59.4 ± 22.4 mg/dL | selectivity for human SGLT2 compared to human SGLT1 (human SGLT2): 2400 fold | body weight (healthy cats): cats lost weight throughout the study
